Data on twelve compounds can be found in patent EP2242752B1, “[…] IMIDAZOLES AS HEPATITIS C VIRUS INHIBITORS” (Bristol-Myers Squibb Company, priority 2008, dated 2009).

The structures appear in SMILES notation.

The test system of the assay is HCV 1b genotype. As to the kind of experiment: HCV Replicon assay (HCV 16-377-neo replicon cells). The note with it: Hepatitis C virus; HCV 1b genotype replicon cells; read-out: EC50 ranges against HCV 1b. The format is cell-based. The procedure: An HCV Replion assay was utilized in the present disclosure, and was prepared, conducted and validated as described in commonly owned PCT/US2006/022197 and in O'Boyle et. al. Antimicrob Agents Chemother. 2005 Apr;49(4): 1346-53.
HCV 16-377-neo replicon cells were used to test the currently described compound series as well as cells resistant to compound A due to a Y2065H mutation in NS5A (described in application PCT/US2006/022197). The compounds tested were determined to have more than 10-fold less inhibitory activity on cells resistant to compound A than wild-type cells indicating a related mechanism of action between the two compound series. Thus, the compounds of the present disclosure can be effective to inhibit the function of the HCV NS5A protein and are understood to be as effective in combinations as previously described in application PCT/US2006/022197 and commonly owned WO/O4014852. Further, the compounds of the present disclosure can be effective against the HCV 1b genotype. It should also be understood that the compounds of the present disclosure can inhibit multiple genotypes of HCV. […] In one embodiment compounds of the present disclosure are active against the 1a, 1b, 2a, 2b, 3a, 4a, and 5a genotypes.
(Replicon systems follow genome replication, usually without infectious particles.)
A word on the EC50: it is the concentration that produces a half-maximal response. For the compound `COC(=O)N[C@H](C(=O)N1CCC[C@H]1c1nc(-c2ccc(-c3ccc(-c4nc([C@@H]5CCCN5C(=O)[C@@H](NC(=O)OC)[C@@H](C)OC)[nH]c4C)cc3)cc2)c(C)[nH]1)[C@@H](C)OC` [Example E5m, methyl ((1S,2R)-2-methoxy-1-(((2S)-2-(4-(4'-(2-((2S)-1-(N-(methoxycarbonyl)-O-methyl-L-threonyl)-2-pyrrolidinyl)-5-methyl-1H-imidazol-4-yl)-4-biphenylyl)-5-methyl-1H-imidazol-2-yl)-1-pyrrolidinyl)carbonyl)propyl)carbamate], the half-maximal effective concentration (EC50) fell in the range of 0.001 to 0.999 nM.

As to `COC(=O)N[C@H](C(=O)N1CCC[C@H]1c1nc(-c2ccc(-c3ccc(-c4[nH]c([C@@H]5CCCN5C(=O)[C@@H](NC(=O)OC)C(C)C)nc4CC4OCCCO4)cc3)cc2)c[nH]1)C(C)C` [Example J14, methyl ((1S)-1-(((2S)-2-(4-(1,3-dioxan-2-ylmethyl)-5-(4'-(2-((2S)-1-((2S)-2-((methoxycarbonyl)amino)-3-methylbutanoyl)-2-pyrrolidinyl)-1H-imidazol-4-yl)-4-biphenylyl)-1H-imidazol-2-yl)-1-pyrrolidinyl)carbonyl)-2-methylpropyl)carba mate], the half-maximal effective concentration (EC50) is 0.001 to 0.999 nM.

As to `COC(=O)N[C@H](C(=O)N1CCC[C@H]1c1nc(-c2ccc(-c3ccc(-c4[nH]c([C@@H]5CCCN5C(=O)[C@@H](NC(=O)OC)[C@@H](C)OC)nc4CC(OC)OC)cc3)cc2)c[nH]1)[C@@H](C)OC` [Example J14a, methyl ((1S,2R)-1-(((2S)-2-(4-(2,2-dimethoxyethyl)-5-(4'-(2-((2S)-1-(N-(methoxycarbonyl)-O-methyl-L-threonyl)-2-pyrrolidinyl)-1H-imidazol-4-yl)-4-biphenylyl)-1H-imidazol-2-yl)-1-pyrrolidinyl)carbonyl)-2-methoxypropyl)car bamate], the concentration for a half-maximal effect (EC50) lay in the range of 0.001 to 0.999 nM.

On to `COC(=O)N[C@H](C(=O)N1CCC[C@H]1c1nc(-c2ccc(-c3ccc(-c4[nH]c([C@@H]5CCCN5C(=O)[C@@H](NC(=O)OC)C(C)C)nc4CC(OC)OC)cc3)cc2)c[nH]1)C(C)C` [Example J14a.1, methyl ((1S)-1-(((2S)-2-(4-(2,2-dimethoxyethyl)-5-(4'-(2-((2S)-1-((2S)-2-((methoxycarbonyl)amino)-3-methylbutanoyl)-2-pyrrolidinyl)-1H-imidazol-4-yl)-4-biphenylyl)-1H-imidazol-2-yl)-1-pyrrolidinyl)carbonyl)-2-methylpropyl)carba mate], for which the EC50 is 0.001 to 0.999 nM.

With `COC(=O)Cc1[nH]c([C@@H]2CCCN2C(=O)[C@@H](NC(=O)OC)[C@@H](C)OC)nc1-c1ccc(-c2ccc(-c3c[nH]c([C@@H]4CCCN4C(=O)[C@@H](NC(=O)OC)[C@@H](C)OC)n3)cc2)cc1` [Example J14b, methyl (2-((2S)-1-(N-(methoxycarbonyl)-O-methyl-L-threonyl)-2-pyrrolidinyl)-4-(4'-(2-((2S)-1-(N-(methoxycarbonyl)-O-methyl-L-threonyl)-2-pyrrolidinyl)-1H-imidazol-4-yl)4-biphenylyl)-1H-imidazol-5-yl)acetate], the half-maximal effective concentration (EC50) lay within 0.001 to 0.999 nM.

On to `COC(=O)Cc1[nH]c([C@@H]2CCCN2C(=O)[C@@H](NC(=O)OC)C(C)C)nc1-c1ccc(-c2ccc(-c3c[nH]c([C@@H]4CCCN4C(=O)[C@@H](NC(=O)OC)C(C)C)n3)cc2)cc1` [Example J14b.1, methyl (2-((2S)-1-(N-(methoxycarbonyl)-L-valyl)-2-pyrrolidinyl)-4-(4'-(2-((2S)-1-(N-(methoxycarbonyl)-L-valyl)-2-pyrrolidinyl)-1H-imidazol-4-yl)-4-biphenylyl)-1H-imidazol-5-yl)acetate], for which the concentration giving a half-maximal response (EC50) was in the range of 0.001 to 0.999 nM.

For the compound `CCCc1nc([C@@H]2CCCN2C(=O)[C@H](C)NC(=O)OC)[nH]c1-c1ccc(-c2ccc(-c3c[nH]c([C@@H]4CCCN4C(=O)[C@H](C)NC(=O)OC)n3)cc2)cc1` [Example J14c, methyl ((1S)-2-((2S)-2-(4-(4'-(2-((2S)-1-(N-(methoxycarbonyl)-L-alanyl)-2-pyrrolidinyl)-4-propyl-1H-imidazol-5-yl)-4-biphenylyl)-1H-imidazol-2-yl)-1-pyrrolidinyl)-1-methyl-2-oxoethyl)carbamate], the EC50 lay within 0.001 to 0.999 nM.

Turning to `CCCc1[nH]c([C@@H]2CCCN2C(=O)[C@@H](c2ccccc2)N(CC)CC)nc1-c1ccc(-c2ccc(-c3c[nH]c([C@@H]4CCCN4C(=O)[C@@H](c4ccccc4)N(CC)CC)n3)cc2)cc1` [Example J14c.1, (1R)-2-((2S)-2-(4-(4'-(2-((2S)-1-((2R)-2-(diethylamino)-2-phenylacetyl)-2-pyrrolidinyl)-1H-imidazol-4-yl)-4-biphenylyl)-5-propyl-1H-imidazol-2-yl)-1-pyrrolidinyl)-N,N-diethyl-2-oxo-1-phenylethanamine], the concentration for a half-maximal effect (EC50) was 0.001 to 0.999 nM.

Take `CCCc1[nH]c([C@@H]2CCCN2C(=O)[C@@H](NC(=O)OC)C(C)C)nc1-c1ccc(-c2ccc(-c3c[nH]c([C@@H]4CCCN4C(=O)[C@@H](NC(=O)OC)C(C)C)n3)cc2)cc1` [Example J14c.2, methyl ((1S)-1-(((2S)-2-(4-(4'-(2-((2S)-1-((2S)-2-((methoxycarbonyl)amino)-3-methylbutanoyl)-2-pyrrolidinyl)-1H-imidazol-4-yl)-4-biphenylyl)-5-propyl-1H-imidazol-2-yl)-1-pyrrolidinyl)carbonyl)-2-methylpropyl)carba mate]: the 50% effective concentration (EC50) was in the range of 0.001 to 0.999 nM.

Turning to `COC(=O)N[C@H](C(=O)N1CC(F)(F)C[C@H]1c1nc(-c2ccc(-c3ccc(-c4c[nH]c([C@@H]5CCCN5C(=O)[C@@H](NC(=O)OC)C(C)C)n4)c(F)c3)cc2)c[nH]1)C(C)C` [Example J14e, methyl ((1S)-1-(((2S)-4,4-difluoro-2-(4-(3'-fluoro-4'-(2-((2S)-1-((2S)-2-((methoxycarbonyl)amino)-3-methylbutanoyl)-2-pyrrolidinyl)-1H-imidazol-4-yl)-4-biphenylyl)-1H-imidazol-2-yl)-1-pyrrolidinyl)carbonyl)-2-methylpropyl)carba mate], the EC50 is 0.001 to 0.999 nM.

`CCN(CC)[C@@H](C(=O)N1CC(F)(F)C[C@H]1c1nc(-c2ccc(-c3ccc(-c4c[nH]c([C@@H]5CCCN5C(=O)[C@@H](c5ccccc5)N(CC)CC)n4)c(F)c3)cc2)c[nH]1)c1ccccc1` [Example J14e.1, (1R)-2-((2S)-2-(4-(4'-(2-((2S)-1-((2R)-2-(diethylamino)-2-phenylacetyl)-4,4-difluoro-2-pyrrolidinyl)-1H-imidazol-4-yl)-3-fluoro-4-biphenylyl)-1H-imidazol-2-yl)-1-pyrrolidinyl)-N,N-diethyl-2-oxo-1-phenylethanamine]: the EC50 lay within 0.001 to 0.999 nM.

On to `COC(=O)N[C@H](C(=O)N1CCC[C@H]1c1nc(-c2ccc(-c3ccc(-c4[nH]c([C@@H]5CCCN5C(=O)[C@@H](NC(=O)OC)C(C)C)nc4CO)cc3)cc2)c[nH]1)C(C)C` [Example J14f, methyl ((1S)-1-(((2S)-2-(4-(hydroxymethyl)-5-(4'-(2-((2S)-1-((2S)-2-((methoxycarbonyl)amino)-3-methylbutanoyl)-2-pyrrolidinyl)-1H-imidazol-4-yl)-4-biphenylyl)-1H-imidazol-2-yl)-1-pyrrolidinyl)carbonyl)-2-methylpropyl)carba mate], for which the half-maximal effective concentration (EC50) is 0.001 to 0.999 nM.
